Where a name gives a salt, the structure may show the parent alone.
Legend:
BJ cells [1] = assay: Previous cytotoxicity data on BJ cells obtained without barriers; assay type: cell-based; details: Homo sapiens, dosed without barriers
Description: The aim was to detect dose-dependent effect by using a concentration that was expected to kill about half of the cells and a concentration two times bigger than that.

BJ cells [2] = assay: Leakage Test 1: 3D-printed barriers, BJ cells outside, chemical dosed inside, WST-1 and microscopy; assay type: cell-based, Human; details: SDS 80 and 40 μg/ml, amitriptyline 20 and 10 μg/ml dosed inside barrier, 24 hrs
Protocol: It was investigated whether the 3D-printed GrowDex barriers are suitable for their intended use, i.e. to prevent the movement of cells across the barrier but allow the passage of chemicals. In order to test this, BJ cells were seeded outside of the barrier, and chemicals (SDS and Amitriptyline hydrochloride), which are known to be toxic to BJ cells, were applied inside of the barrier. After 24 hrs incubation it was evaluated microscopically whether cells had stayed outside of the barriers and whether the chemical dosed in the middle of the barrier killed the cells outside of the barrier. For quantification of cell viability, WST-1 assay was used. WST-1 assay was selected as it was used previously successfully with manually constructed barriers.
12-Well Plates: 400 μl BJ suspension (100 000 cells/ml) was seeded outside of the barriers (→altogether 40 000 BJ cells), and 100 μl BJ cell culture medium was pipetted inside of the barriers.
24-Well Plates: 200 μl of BJ suspension (100 000 cells/ml) was seeded outside of the barriers (→altogether 20 000 BJ cells), and 50 μl BJ cell culture medium was pipetted inside of the barriers. […]
The plates were incubated for 2.5 hrs before absorbance measurement at 450 nm. The absorbance was measured using multipoint measurement with 49 reads/well in 24-well plates and 81 reads/well in 12-well plates.

[3] = Leakage Test 2: 3D-printed 1.5% GrowDex barriers, BJ cells outside, chemical dosed inside, WST-1; assay type: cell-based, Human; details: human; for viability at 24 h, 100 μg/ml: 100 μg/ml dosed into other side of barrier; for viability at 24 h, 100 μg/ml / viability at 24 h, 200 μg/ml: read-out: Viability % of Control; for viability at 24 h, 200 μg/ml: 200 μg/ml dosed into other side of barrier
Protocol: (§1) For this purpose, we • decreased the cell number from the 40 000 cells/well that was used in Test 1, to 20 000 cells/well • increased the Amitriptyline concentrations from 10 and 20 μg/ml used in Test 1 to 100 and 200 μg/ml, and the SDS concentrations from 40 and 80 μg/ml used in Test 1 to 100 and 200 μg/ml. [By decreasing cell number and increasing chemical concentration it was aimed to increase the sensitivity of the test, and expect to obtain more (measurable/visible) impacts on cells]. • included following blanks: • 1.5% GrowDex barrier on poly-D-lysine coated wells in BJ cell culture medium and WST-1, but no cells • 1.5% GrowDex barrier in MEM, no coating, no cells • 1.5% GrowDex barrier in PBS, no coating, no cells • In addition, the number of measurements/well in the multipoint absorbance reading was increased from 81 to 225 reads/well in order to get denser coverage of the well.
(§2) 1.5% GrowDex barriers consisting of four layers, were printed on a 12-well plate. For more details on 3D-printing, see Appendix 1. After construction, the barriers were left to dry for 1 hr at room temperature, after which they were covered with MEM. The plate was sealed with parafilm and stored at 4° C. until used.
(§3) The next day after construction of the barriers, BJ fibroblasts were seeded: 400 μl BJ suspension (50 000 cells/ml) was seeded outside of the barriers (→altogether 20 000 BJ cells), and 100 μl BJ cell culture medium was pipetted inside of the barriers. The cells were let to grow for 24 hrs before exposure.
(§4) 2.0 mg/ml stocks were prepared from both Amitriptyline and SDS in BJ cell culture medium with 5% FBS. The stocks were first diluted 1:10 to obtain […] chemical dilution. And the 200 μg/ml chemical dilution was further diluted 1:2 to obtain 100 μg/ml chemical dilution. These dilutions, i.e. 200 and 100 μg/ml were used in the exposure.
(§5) The medium was removed carefully from both inside and outside of the barriers. 400 μl BJ cell culture medium with 5% FBS was pipetted outside of the barrier (where the cells had been seeded on previous day). 100 μl chemical dilution (SDS or Amitriptyline) was pipetted inside of the barriers. The exposure time was 24 hrs.
(§6) After 24 hrs chemical exposure, 10 μl WST-1 reagent was pipetted inside of the barriers, and 100 μl outside of the barriers. The plate was incubated for 30 min, 1.5 hrs and 2.0 hrs before absorbance measurement at 450 nm. The absorbance was measured using multipoint measurement with 225 reads/well.
(§7) In an attempt to quantify the cell viability after different treatments, the mean±STDEV absorbances were calculated using two rows of absorbances that were measured next to the outer edges of the wells. This area was assumed to be outside of the barrier.

BJ fibroblasts = assay: as above; assay type: cell-based, Human; details: 24 hrs, 450 nm
Protocol: as §1, §2, §3, §4, §5, §6, §7

HepG2 cells = assay: SDS permeability (indirect): cell viability observed microscopically inside and outside barrier circle; assay type: cell-based, Human; details: 0.4 mg/ml SDS dosed inside circle
Protocol: Barrier permeability to chemicals was tested by visual inspection using 0.2% Trypan blue, by quantitative measurement using 1 mg/ml fluorescein solution, and by indirect method using sodium dodecyl sulfate (SDS), which is a toxic compound. SDS is a detergent that is known to be toxic to all cell types. […] Circular shaped barriers were prepared in 6-well plates, and straight wall shaped barriers in 24-well plates. SH-SY5Y cells were seeded to the 24-well plate in both sides of the barriers in their normal cell culture medium at the density of 325 000 cells/50 μl. HepG2 cells were seeded to the 6-well plate both inside the barrier circles and outside of them at the density of 107 500 cells/50 μl. Next day 0.4 mg/ml SDS stock was prepared and the cells were exposed to it: HepG2 cells growing on the […]: 400 μl of 0.4 mg/ml SDS solution was pipetted inside the circle, and 400 μl of medium without SDS […] outside of the circle. […] The cell viability was observed microscopically.

SH-SY5Y cells = assay: SDS permeability (indirect): cell viability observed microscopically on both sides of barrier; assay type: cell-based, Human; details: 0.4 mg/ml SDS dosed left
Protocol: Barrier permeability to chemicals was tested by visual inspection using 0.2% Trypan blue, by quantitative measurement using 1 mg/ml fluorescein solution, and by indirect method using sodium dodecyl sulfate (SDS), which is a toxic compound. SDS is a detergent that is known to be toxic to all cell types. […] Circular shaped barriers were prepared in 6-well plates, and straight wall shaped barriers in 24-well plates. SH-SY5Y cells were seeded to the 24-well plate in both sides of the barriers in their normal cell culture medium at the density of 325 000 cells/50 μl. HepG2 cells were seeded to the 6-well plate both inside the barrier circles and outside of them at the density of 107 500 cells/50 μl. Next day 0.4 mg/ml SDS stock was prepared and the cells were exposed to it: SH-SY5Y cells growing on the 24 well plate: 100 μl of 0.4 mg/ml SDS solution was pipetted to the left side of the barrier. 100 μl medium without SDS was pipetted to the right side of the barrier. […] The cell viability was observed microscopically.

[4] = 0.2% Trypan blue permeability through GrowDex barrier, visual inspection; assay type: physicochemical; details: 0.2% dosed to left side
Protocol: Barriers were prepared in 6-well (circular shaped barriers) and in 24-well (straight wall shaped barriers) plates, and allowed to dry overnight. The barriers were high enough to prevent passage and mixing of the solutions over them. All passage and mixing had to occur through the barriers. Barrier permeability to chemicals was tested by visual inspection using 0.2% Trypan blue, by quantitative measurement using 1 mg/ml fluorescein solution, and by indirect method using sodium dodecyl sulfate (SDS), which is a toxic compound. 400 μl Dulbecco's PBS/well was added to the 24-well plates. The plates were incubated for 1 hour at room temperature to moisturize the GrowDex barrier. The DPBS was removed and replaced with 100 μl 0.2% Trypan blue on the left side of the barrier, and with an equal amount of DPBS on the right side of the barrier.

[5] = 100 μg/ml dosed into other side of barrier
[6] = 200 μg/ml dosed into other side of barrier

| Structure (SMILES) | IC50 (BJ cells [1]) | toxicity to BJ cells across 3D-printed barrier (BJ cells [2]) | viability at 24 h, 100 μg/ml [3] | cytotoxicity at 24 h, 100 μg/ml ([3]; 100 μg/ml exposure, across barrier, read-out: reduction in BJ viability) | viability at 24 h, 200 μg/ml [3] | cytotoxicity at 24 h, 200 μg/ml ([3]; 200 μg/ml exposure, across barrier, read-out: reduction in BJ viability) | Mean absorbance, stdev (BJ fibroblasts; [5]) | Mean absorbance, stdev (BJ fibroblasts; [6]) | cell viability inside the GrowDex circle (dosed side) (HepG2 cells; 24 hours) | cell viability outside of the circle (HepG2 cells; 24 hours) | HepG2 cells died outside of the circle (HepG2 cells; 48 hours) | cell viability, left side of the barrier (dosed side) (SH-SY5Y cells; 24 hours) | cell viability, right side of the barrier (SH-SY5Y cells; 24 hours) | cell viability, both compartments (SH-SY5Y cells; 48 hours) | distribution of blue color ([4]; after six hours) | distribution of blue color ([4]; next day) |
| --- | --- | --- | --- | --- | --- | --- | --- | --- | --- | --- | --- | --- | --- | --- | --- | --- |
| CN(C)CCC=C1c2ccccc2CCc2ccccc21 [Amitriptyline hydrochloride, 3-(10,11-dihydro-5H-dibenzo[a,d]cycloheptene-5-ylidene)-N,N-dimethylpropan-1-amine] | 12 µg/mL | not toxic | 90% | 10% | 84% | 16% | 0.911 ± 0.283 | 0.844 ± 0.318 | – | – | – | – | – | – | – | – |
| CCCCCCCCCCCCOS(=O)(=O)[O-].[Na+] [SDS, Sodium Dodecyl Sulfate] | 47 µg/mL | not toxic | 106% | – | 118% | – | 1.072 ± 0.322 | 1.189 ± 0.406 | all HepG2 cells were dead inside the GrowDex circle | also outside of the circle next to the GrowDex barrier | about 95% | all SH-SY5Y cells in the left side of the barrier were dead | cells were dead next to the barrier, but not all over the well | all cells were dead in both compartments | – | – |
| Cc1cc(-c2ccc(/N=N/c3c(S(=O)(=O)O)cc4cc(S(=O)(=O)O)cc(N)c4c3O)c(C)c2)ccc1/N=N/c1c(S(=O)(=O)O)cc2cc(S(=O)(=O)O)cc(N)c2c1O [Trypan Blue] | – | – | – | – | – | – | – | – | – | – | – | – | – | – | absorbed most of the blue color | evenly distributed on the both sides of the barrier |

Source: patent publication US12258547B2, “Cell culture plate, method for preparing thereof and method for detecting a substance” (UPM-Kymmene Corporation, priority 2019, dated 2025)
